From patent US20120211373A1, “MICROFLUIDIC SYSTEM FOR MEASURING CELL BARRIER FUNCTION” (THE REGENTS OF THE UNIVERSITY OF MICHIGAN, priority 2011, published 2012)

What was measured:
b.END.3 cell monolayer = assay: TEER / impedance of b.END.3 cell monolayer after chemical treatment in microfluidic chip; type: cell-based, mouse
Description: Cell Seeding and Culture. Epithelial (MDCK-2) and endothelial (b.END.3) cell lines were selected because they offered well characterized and accepted TEER values to compare with the experimental results. […] All cell lines were cultured in endothelial growth media (DMEM with 10% fetal bovine serum and 1% penicillin/streptomycin) prior to seeding in the microfluidic chip. The microfluidic chip was exposed to plasma oxygen for 5 min to make hydrophilic. Prior to cell seeding, fibronectin solution (Invitrogen) at a concentration of 100 μg/mL in phosphate buffered saline (PBS) was injected into the upper (endothelial) channel to promote cell adhesion. The lower channel was preloaded with growth media. […]
Resolving TEER from Circuit Model. In order to resolve the TEER value from the experimental impedance spectra, the control impedance spectra (taken from the same chip just before cell seeding) was subtracted from the measured impedance spectra (with cells) to eliminate the effect from electrolyte, membrane, and electrode-electrolyte interfaces and simplify the analysis. […]

b.End3 monolayers = assay: Paracellular permeability across b.End3 monolayers in transwells and layered microfluidic devices
Description: The permeability of [^14C]-mannitol as a function of days across b.End3 cells cultured in transwells and layered microfluidic channels was measured. […] Consequently, mannitol has been routinely used to assess the paracellular permeability of epithelial and endothelial monolayers.
Permeability experiments were performed at 3, 6, 9, 12, 15, 18, and 21 days in culture for all three marker molecules with five replicates for both the transwells and the layered microfluidic devices. Briefly, cells grown in both the transwells and the layered microfluidic devices under static condition were removed from the incubator and washed twice by replacing culture medium with PBS solution. PBS solutions were then aspirated and replaced by the designated solution with radioactively labeled marker molecules at the apical (top) compartment. All transwells and layered microfluidic devices were then placed onto the shaker at 100 rpm inside the incubator at 37° C., 95% air, and 5% CO2 for a total of 60 minutes. At every 10 minute interval, the transwells and the layered microfluidic devices were taken out of the incubator; the PBS solutions from the basolateral compartments were collected and replaced by fresh PBS solutions. At the end of the 1 hour incubation time, the solutions in both the apical and basolateral compartments were collected. All the samples collected during the experiments were measured using liquid scintillation counter which evaluates the radioactivity of each sample in the unit of count per minute (CPM). CPMs from all samples are then converted into concentration using the standard dilution scheme.
The permeability of a given molecule across the monolayer was calculated by suing a derived form of a differential equation based on Fick's Law: […]
The unit of measurement cm/s for permeability coefficient is commonly used.

Row | lower permeability in layered microfluidic channels compared to transwells (b.End3 monolayers; Example 2, b.End3, as a function of days in culture (FIG. 11)) | lower permeability across b.End3 monolayers in layered microfluidic devices compared to transwells (b.End3 monolayers; Example 5, after 9 days in culture (FIG. 11A)) | permeability relative to the large markers in layered microfluidic devices (size selectivity) (b.End3 monolayers; day 3 and day 6 in culture (FIG. 11E)) | Compound | impedance of the entire system following treatment (b.END.3 cell monolayer; all frequency points, 30 min, 0.1% in DMEM) | TEER (paracellular resistance) after treatment (b.END.3 cell monolayer; b.END.3 monolayer treated 30 min with 0.1% in DMEM, before treatment 161.51±0.755 Ωcm^2)
1 | – | – | – | TritonX-100 | decreased significantly | 39.73±1.925 Ωcm^2
2 | 15 fold | 10 fold | higher permeability | OC[C@@H](O)[C@@H](O)[C@H](O)[C@H](O)CO [[^14C]-mannitol, [^14C]-D-Mannitol] | – | –
